Reference: article PMC10709440, “High-throughput ligand profile characterization in novel cell lines expressing seven heterologous insect olfactory receptors for the detection of volatile plant biomarkers” (Scientific Reports, 2023)
Like-named read-outs stand apart in the source and are kept apart here.

Experiments:
Drosophila OR49b = molecular target: T1, Drosophila OR49b (Drosophila melanogaster, UniProt Q9V6H2); assay: cell-based; conditions: for Average response / OR49b response (VUAA1-normalized) at 1 μM / OR49b response (VUAA1-normalized) at 10 μM / OR49b response (VUAA1-normalized) at 100 μM: OR49b cell line; for Average response: mean of biological replicates; for activation at 1 µM / activation at 10 µM / activation at 100 µM: HEK293, read-out: OR49b response (VUAA1-normalized response)
T1 construct: expressed in transfected cells
T1 sequence (Q9V6H2 1-375): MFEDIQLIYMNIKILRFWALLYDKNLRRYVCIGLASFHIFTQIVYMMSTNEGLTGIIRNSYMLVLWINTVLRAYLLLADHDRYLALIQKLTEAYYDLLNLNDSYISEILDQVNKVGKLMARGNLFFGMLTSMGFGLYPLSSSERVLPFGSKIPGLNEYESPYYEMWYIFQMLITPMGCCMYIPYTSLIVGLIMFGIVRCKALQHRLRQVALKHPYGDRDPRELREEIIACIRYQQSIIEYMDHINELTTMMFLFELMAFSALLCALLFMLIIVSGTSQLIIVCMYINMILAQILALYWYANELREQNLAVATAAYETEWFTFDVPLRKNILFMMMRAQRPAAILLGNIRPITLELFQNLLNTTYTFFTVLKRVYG
T1 sequence (Q9VNB5 1-486 partner): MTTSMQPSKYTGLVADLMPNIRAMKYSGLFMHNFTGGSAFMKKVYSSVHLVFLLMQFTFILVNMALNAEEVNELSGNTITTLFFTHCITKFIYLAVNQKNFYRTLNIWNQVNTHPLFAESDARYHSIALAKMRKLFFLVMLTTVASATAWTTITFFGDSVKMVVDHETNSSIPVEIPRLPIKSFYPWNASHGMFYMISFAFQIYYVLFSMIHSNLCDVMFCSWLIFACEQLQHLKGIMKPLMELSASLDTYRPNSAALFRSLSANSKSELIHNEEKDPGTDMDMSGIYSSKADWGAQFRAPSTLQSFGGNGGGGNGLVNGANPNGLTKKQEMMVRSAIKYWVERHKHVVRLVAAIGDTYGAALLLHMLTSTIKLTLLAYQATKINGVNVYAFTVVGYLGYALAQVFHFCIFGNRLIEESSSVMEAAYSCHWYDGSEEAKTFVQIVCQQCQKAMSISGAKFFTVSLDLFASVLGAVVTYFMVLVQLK
Procedure, shortened: (§1)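 Responses are VUAA1-normalized ΔF: each VOC-evoked calcium signal, (FMAX−F0)/F0 over 30 s after injection, divided by the same line's mean 50 µM VUAA1 response. Cells were doxycycline-induced HEK293 with GCaMP6 and the cognate Drosophila OR, in HEPES buffer pH 7.3; ligands tested 0.01–100 μM.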

Drosophila OR71a = molecular target: T2, Drosophila OR71a (Drosophila melanogaster, UniProt Q9VUK5); assay: Calcium ion fluorescence (GCaMP6) assay, OR71a stable HEK293 cell line; type: cell-based; conditions: for Average response / OR71a response (VUAA1-normalized) at 1 μM / OR71a response (VUAA1-normalized) at 10 μM / OR71a response (VUAA1-normalized) at 100 μM: OR71a cell line; for Average response: VUAA1-normalized response, mean of biological replicates; for activation at 1 µM / activation at 10 µM / activation at 100 µM: HEK293, read-out: OR71a response (VUAA1-normalized response); for OR71a Average response (VUAA1-normalized): 50 μM VUAA1 = 1
T2 construct: expressed in transfected cells
T2 sequence (Q9VUK5 1-378): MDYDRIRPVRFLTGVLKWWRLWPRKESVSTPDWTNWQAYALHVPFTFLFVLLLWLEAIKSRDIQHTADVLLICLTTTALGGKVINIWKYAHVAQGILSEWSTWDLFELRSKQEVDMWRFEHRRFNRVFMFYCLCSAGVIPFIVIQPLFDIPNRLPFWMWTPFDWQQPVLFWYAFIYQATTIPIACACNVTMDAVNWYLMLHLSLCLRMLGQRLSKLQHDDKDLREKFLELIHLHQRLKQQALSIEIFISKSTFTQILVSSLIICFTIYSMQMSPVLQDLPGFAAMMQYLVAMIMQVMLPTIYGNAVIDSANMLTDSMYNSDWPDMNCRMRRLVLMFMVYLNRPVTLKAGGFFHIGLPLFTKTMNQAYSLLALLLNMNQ
T2 sequence (Q9VNB5 1-486 partner): T1 sequence (Q9VNB5 1-486 partner)
Procedure, shortened: as §1

[1] = concentration 1, normalized fluorescence change, values below 0.05 threshold given as 0
[2] = concentration 10, normalized fluorescence change, values below 0.05 threshold given as 0
[3] = concentration 100, normalized fluorescence change, values below 0.05 threshold given as 0
[4] = ligand concentration 100 (unit not given), 0.05 threshold, values below shown as 0
[5] = ligand concentration 1 (unit not given), 0.05 threshold, values below shown as 0
[6] = ligand concentration 10 (unit not given), 0.05 threshold, values below shown as 0
[7] = ligand concentration 1 (unit not given), threshold 0.05, below shown as 0
[8] = ligand concentration 10 (unit not given), threshold 0.05, below shown as 0
[9] = ligand concentration 100 (unit not given), threshold 0.05, below shown as 0

Compound | Average response (Drosophila OR49b; odorant cc. 1 µM) | Average response (Drosophila OR49b; odorant cc. 10 µM) | Average response (Drosophila OR49b; odorant cc. 100 µM) | Average response (Drosophila OR71a; cc. 1 µM) | Average response (Drosophila OR71a; cc. 10 µM) | Average response (Drosophila OR71a; cc. 100 µM) | OR49b response (VUAA1-normalized) at 1 μM (Drosophila OR49b; VOC concentration 1 μM) | OR49b response (VUAA1-normalized) at 10 μM (Drosophila OR49b; VOC concentration 10 μM) | OR49b response (VUAA1-normalized) at 100 μM (Drosophila OR49b; VOC concentration 100 μM) | OR71a response (VUAA1-normalized) at 1 μM (Drosophila OR71a; VOC concentration 1 μM) | OR71a response (VUAA1-normalized) at 10 μM (Drosophila OR71a; VOC concentration 10 μM) | OR71a response (VUAA1-normalized) at 100 μM (Drosophila OR71a; VOC concentration 100 μM) | activation at 1 µM (Drosophila OR49b; VOC concentration 1 μM) [%] | activation at 10 µM (Drosophila OR49b; VOC concentration 10 μM) [%] | activation at 100 µM (Drosophila OR49b; VOC concentration 100 μM) [%] | DF norm AVERAGE OR49b (Drosophila OR49b; [7]) | DF norm AVERAGE OR49b (Drosophila OR49b; [8]) | DF norm AVERAGE OR49b (Drosophila OR49b; [9]) | activation at 1 µM (Drosophila OR71a) [%] | activation at 10 µM (Drosophila OR71a) [%] | also measured
(+)-beta-cedrene | 0.00 | 0.0336 | 0.00 | 0.0243 | 0.03 | 0.00 |  |  |  |  |  |  |  |  |  |  |  |  |  |  | DF norm AVERAGE OR49b (Drosophila OR49b): 0; OR49b response (VUAA1-normalized response) (Drosophila OR49b; VOC concentration 1 μM): 0.00; OR49b response (VUAA1-normalized response) (Drosophila OR49b; VOC concentration 10 μM): 0.00; OR49b response (VUAA1-normalized response) (Drosophila OR49b; VOC concentration 100 μM): 0.00; OR71a response (VUAA1-normalized response) (Drosophila OR71a; VOC concentration 1 μM): 0.00; OR71a response (VUAA1-normalized response) (Drosophila OR71a; VOC concentration 10 μM): 0.00; OR71a response (VUAA1-normalized response) (Drosophila OR71a; VOC concentration 100 μM): 0.00; DF norm AVERAGE OR71a (Drosophila OR71a; [1]): 0; DF norm AVERAGE OR71a (Drosophila OR71a; [2]): 0; DF norm AVERAGE OR71a (Drosophila OR71a; [3]): 0
CCCCCCCCCCCCCC [tetradecane] | 0.07 | 0.05 | 0.0348 | 0.0218 | 0.0215 | 0.0462 | 0.07 | 0.05 | 0.00 | 0.00 | 0.00 | 0.00 |  |  |  |  |  |  |  |  | DF norm AVERAGE OR49b (Drosophila OR49b; ligand concentration 1 (unit not given), […]): 0.06864; DF norm AVERAGE OR49b (Drosophila OR49b; ligand concentration 10 (unit not given), […]): 0.05202; DF norm AVERAGE OR49b (Drosophila OR49b; [4]): 0; DF norm AVERAGE OR71a (Drosophila OR71a; [5]): 0; DF norm AVERAGE OR71a (Drosophila OR71a; [6]): 0; DF norm AVERAGE OR71a (Drosophila OR71a; [4]): 0
C=CCc1ccc(O)c(OC)c1 [eugenol] | 0.05 | 0.00 | 0.00 | 0.00 | 0.0465 | 0.0247 |  |  |  |  |  |  | 0 | 0 | 0 | 0 | 0 | 0 | 0 | 0 | activation at 100 µM (Drosophila OR71a): 0%; DF norm AVERAGE OR71a (Drosophila OR71a; [7]): 0; DF norm AVERAGE OR71a (Drosophila OR71a; [8]): 0; DF norm AVERAGE OR71a (Drosophila OR71a; [9]): 0
CC1=CCC2C(C1)C2(C)C (centres unmarked) [3-carene] | 0.00 | 0.00 | 0.00 | 0.00 | 0.00 | 0.00 |  |  |  |  |  |  | 0 | 0 | 0 |  |  |  | 0 | 0 | DF norm AVERAGE OR49b (Drosophila OR49b): 0; activation at 100 µM (Drosophila OR71a): 0%; DF norm AVERAGE OR71a (Drosophila OR71a; [1]): 0; DF norm AVERAGE OR71a (Drosophila OR71a; [2]): 0; DF norm AVERAGE OR71a (Drosophila OR71a; [3]): 0
COC(=O)c1ccccc1 [methyl benzoate] | 0.13 | 0.00 | 0.05 | 0.00 | 0.00 | 0.0121 | 0.13 | 0.00 | 0.00 | 0.00 | 0.00 | 0.00 |  |  |  | 0.1337 | 0 | 0 |  |  | DF norm AVERAGE OR71a (Drosophila OR71a; [7]): 0; DF norm AVERAGE OR71a (Drosophila OR71a; [8]): 0; DF norm AVERAGE OR71a (Drosophila OR71a; [9]): 0
CCOC(=O)c1ccccc1 [ethyl benzoate] | 0.06 | 0.0464 | 0.0169 | 0.04 | 0.0554 | 0.11 |  |  |  |  |  |  | 6 | 0 | 0 | 0.05937 | 0 | 0 | 0 | 5.54 | OR71a Average response (VUAA1-normalized) (Drosophila OR71a; 1 μM VOC): 0.04; OR71a Average response (VUAA1-normalized) (Drosophila OR71a; 10 μM VOC): 0.06; OR71a Average response (VUAA1-normalized) (Drosophila OR71a; 100 μM VOC): 0.11; activation at 100 µM (Drosophila OR71a): 11%; DF norm AVERAGE OR71a (Drosophila OR71a; [7]): 0; DF norm AVERAGE OR71a (Drosophila OR71a; [8]): 0.05543; DF norm AVERAGE OR71a (Drosophila OR71a; [9]): 0.1075
CC/C=C\CCOC(C)=O [Z-3-hexenyl acetate] |  |  |  |  |  |  | 0.00 | 0.00 | 0.00 | 0.00 | 0.00 | 0.00 |  |  |  |  |  |  |  |  | 
CC/C=C\CCO [Z3-hexenol] | 0.0226 | 0.00 | 0.00 | 0.00 | 0.0174 | 0.00 |  |  |  |  |  |  |  |  |  |  |  |  |  |  | DF norm AVERAGE OR49b (Drosophila OR49b; [5]): 0; DF norm AVERAGE OR49b (Drosophila OR49b; [6]): 0; DF norm AVERAGE OR49b (Drosophila OR49b; [4]): 0; DF norm AVERAGE OR71a (Drosophila OR71a; [5]): 0; DF norm AVERAGE OR71a (Drosophila OR71a; [6]): 0; DF norm AVERAGE OR71a (Drosophila OR71a; [4]): 0
